Source: patent publication US11180462B2, “Microbiocidal oxadiazole derivatives” (SYNGENTA PARTICIPATIONS AG, priority 2015, dated 2021)

Assays:
[1] = test system: Glomerella lagenarium (Colletotrichum lagenarium); experiment: Fungicidal activity against Glomerella lagenarium (Colletotrichum lagenarium) liquid culture / cucumber / preventative (anthracnose); format: cell-based; conditions: Colletotrichum orbiculare; 20 ppm in the applied formulation; liquid culture (PDB), growth inhibition measured photometrically after 3 to 4 days; compared to untreated control; read-out: disease control
Procedure, shortened: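 Photometric read-out of fungal growth after 2–7 days, expressed as percent antifungal activity versus untreated check. Cryo-stored conidia in PDB; compound at 20 ppm; dark, 24 °C, 96% RH.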

[2] = test system: Puccinia recondita f. Sp. Tritici; experiment: Fungicidal activity against Puccinia recondita f. sp. tritici / wheat / leaf disc curative (brown rust); format: in vivo; conditions: foliar, 24 h, 200 ppm in the applied formulation, wheat leaf segments, curative (applied 1 day after inoculation), compared to untreated control leaf disks, read-out: disease control
Procedure, shortened: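 Wheat cv. Kanzler leaf segments on agar, inoculated with rust spore suspension, kept dark at 19° C and 75% RH; formulated compound sprayed 1 day post-inoculation. Incubated 19° C, 75% RH, 12 h light/12 h dark; percent disease control vs untreated scored 6 to 8 days after application.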

[3] = test system: Puccinia recondita f. Sp. Tritici; experiment: Fungicidal activity against Puccinia recondita f. sp. tritici / wheat / leaf disc preventative (brown rust); format: in vivo; conditions: foliar, 200 ppm in the applied formulation, wheat leaf segments, preventative, compared to untreated control leaf disks, read-out: disease control
Procedure, shortened: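 Preventative leaf-segment test, wheat cv. Kanzler on water agar. Spray compound at 200 ppm, inoculate with spores 1 day later; 19° C., 75% rh, 12/12 h light. Read-out: % disease control vs untreated, 7 to 9 days after application.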

Phakopsora Pachyrhizi = experiment: Fungicidal activity against Phakopsora pachyrhizi / soybean / leaf disc preventative (Asian soybean rust); format: in vivo; conditions: foliar, 200 ppm in the applied formulation, soybean leaf disks, compared to untreated control leaf disks, read-out: disease control
Procedure, shortened: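 Preventative soybean leaf-disc test: discs on water agar sprayed with diluted formulated compound, inoculated one day later with spores on the lower surface. Held 24–36 h dark at 20°C, 75% rh, then 12 h light/day; percent disease control versus untreated discs scored 12–14 days after application.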

CC(C)CC(=O)N(Cc1ccc(-c2noc(C(F)(F)F)n2)cc1)C1CC1 [Compound 1.109, N-cyclopropyl-3-methyl-N-[[4-[5-(trifluoromethyl)-1,2,4-oxadiazol-3-yl]phenyl]methyl]-butanamide]
≥ 80%: inhibition of growth at 20 ppm [1] | pest or weed control at 200 ppm [2] | pest or weed control at 200 ppm [3] | pest or weed control at 200 ppm (Phakopsora Pachyrhizi)

C=C(C)C(=O)N(Cc1ccc(-c2noc(C(F)(F)F)n2)cc1)CC1CC1 [Compound 1.229, N-(cyclopropylmethyl)-2-methyl-N-[[4-[5-(trifluoromethyl)-1,2,4-oxadiazol-3-yl]phenyl]methyl]-prop-2-enamide]
≥ 80%: inhibition of growth at 20 ppm [1] | pest or weed control at 200 ppm [2] | pest or weed control at 200 ppm [3] | pest or weed control at 200 ppm (Phakopsora Pachyrhizi)

O=C(C1CCC1)N(Cc1ccc(-c2noc(C(F)(F)F)n2)cc1)C1COC1 [Compound 1.742, N-(oxetan-3-yl)-N-[[4-[5-(trifluoromethyl)-1,2,4-oxadiazol-3-yl]phenyl]methyl]-cyclobutane-carboxamide]
≥ 80%: inhibition of growth at 20 ppm [1] | pest or weed control at 200 ppm [2] | pest or weed control at 200 ppm [3] | pest or weed control at 200 ppm (Phakopsora Pachyrhizi)

COCCN(Cc1ccc(-c2noc(C(F)(F)F)n2)cc1)C(=O)C1CCCO1 (centres unmarked) [Compound 1.355, N-(2-methoxyethyl)-N-[[4-[5-(trifluoromethyl)-1,2,4-oxadiazol-3-yl]phenyl]methyl]-tetrahydrofuran-2-carboxamide]
≥ 80%: inhibition of growth at 20 ppm [1] | pest or weed control at 200 ppm [2] | pest or weed control at 200 ppm [3] | pest or weed control at 200 ppm (Phakopsora Pachyrhizi)

COCCNC(=O)N(Cc1ccc(-c2noc(C(F)(F)F)n2)cc1)OC [Compound 3.2, 1-methoxy-3-(2-methoxyethyl)-1-[[4-[5-(trifluoromethyl)-1,2,4-oxadiazol-3-yl]phenyl]methyl]-urea]
≥ 80%: inhibition of growth at 20 ppm [1] | pest or weed control at 200 ppm [2] | pest or weed control at 200 ppm [3] | pest or weed control at 200 ppm (Phakopsora Pachyrhizi)

O=C(C1CCOC1)N(Cc1ccc(-c2noc(C(F)(F)F)n2)cc1)CC1CC1 (centres unmarked) [Compound 1.215, N-(cyclopropylmethyl)-N-[[4-[5-(trifluoromethyl)-1,2,4-oxadiazol-3-yl]phenyl]methyl]-tetrahydrofuran-3-carboxamide]
≥ 80%: inhibition of growth at 20 ppm [1] | pest or weed control at 200 ppm [2] | pest or weed control at 200 ppm [3] | pest or weed control at 200 ppm (Phakopsora Pachyrhizi)

CON(Cc1ccc(-c2noc(C(F)(F)F)n2)c(F)c1)C(=O)C1CCCO1 (centres unmarked) [Compound 1.578, N-[[3-fluoro-4-[5-(trifluoromethyl)-1,2,4-oxadiazol-3-yl]phenyl]methyl]-N-methoxy-tetrahydrofuran-2-carboxamide]
≥ 80%: inhibition of growth at 20 ppm [1] | pest or weed control at 200 ppm [2] | pest or weed control at 200 ppm [3] | pest or weed control at 200 ppm (Phakopsora Pachyrhizi)

COCCN(Cc1ccc(-c2noc(C(F)(F)F)n2)cc1)C(=O)CC(F)(F)F [Compound 1.361, 3,3,3-trifluoro-N-(2-methoxyethyl)-N-[[4-[5-(trifluoromethyl)-1,2,4-oxadiazol-3-yl]phenyl]methyl]-propanamide]
≥ 80%: inhibition of growth at 20 ppm [1] | pest or weed control at 200 ppm [2] | pest or weed control at 200 ppm [3] | pest or weed control at 200 ppm (Phakopsora Pachyrhizi)

CON(Cc1ccc(-c2noc(C(F)(F)F)n2)cc1)C(=O)CC(F)(F)F [Compound 1.36, 3,3,3-trifluoro-N-methoxy-N-[[4-[5-(trifluoromethyl)-1,2,4-oxadiazol-3-yl]phenyl]methyl]-propanamide]
≥ 80%: inhibition of growth at 20 ppm [1] | pest or weed control at 200 ppm [2] | pest or weed control at 200 ppm [3] | pest or weed control at 200 ppm (Phakopsora Pachyrhizi)

CCNC(=O)N(Cc1ccc(-c2noc(C(F)(F)F)n2)cc1)OC [Compound 3.12, 3-ethyl-1-methoxy-1-[[4-[5-(trifluoromethyl)-1,2,4-oxadiazol-3-yl]phenyl]methyl]urea]
≥ 80%: inhibition of growth at 20 ppm [1] | pest or weed control at 200 ppm [2] | pest or weed control at 200 ppm [3] | pest or weed control at 200 ppm (Phakopsora Pachyrhizi)

CCOCC(=O)N(OC)C(C)c1ccc(-c2noc(C(F)(F)F)n2)cc1 (centres unmarked) [Compound 1.264, 2-ethoxy-N-methoxy-N-[1-[4-[5-(trifluoromethyl)-1,2,4-oxadiazol-3-yl]phenyl]ethyl]-acetamide]
≥ 80%: inhibition of growth at 20 ppm [1] | pest or weed control at 200 ppm [2] | pest or weed control at 200 ppm [3] | pest or weed control at 200 ppm (Phakopsora Pachyrhizi)

O=C(N(Cc1ccc(-c2noc(C(F)(F)F)n2)cc1)C1CC1)C1(C(F)(F)F)CC1 [Compound 1.83, N-cyclopropyl-1-(trifluoromethyl)-N-[[4-[5-(trifluoromethyl)-1,2,4-oxadiazol-3-yl]phenyl]methyl]-cyclopropane-carboxamide]
≥ 80%: inhibition of growth at 20 ppm [1] | pest or weed control at 200 ppm [2] | pest or weed control at 200 ppm [3] | pest or weed control at 200 ppm (Phakopsora Pachyrhizi)

COCCN(Cc1ccc(-c2noc(C(F)(F)F)n2)cc1)C(=O)C1(C)COC1 [Compound 1.351, N-(2-methoxyethyl)-3-methyl-N-[[4-[5-(trifluoromethyl)-1,2,4-oxadiazol-3-yl]phenyl]methyl]-oxetane-3-carboxamide]
≥ 80%: inhibition of growth at 20 ppm [1] | pest or weed control at 200 ppm [2] | pest or weed control at 200 ppm [3] | pest or weed control at 200 ppm (Phakopsora Pachyrhizi)

O=C(C1CC1)N(Cc1ccc(-c2noc(C(F)(F)F)n2)cc1)C1CC1 [Compound 1.149, N-cyclopropyl-N-[[4-[5-(trifluoromethyl)-1,2,4-oxadiazol-3-yl]phenyl]methyl]-cyclopropane-carboxamide]
≥ 80%: inhibition of growth at 20 ppm [1] | pest or weed control at 200 ppm [2] | pest or weed control at 200 ppm [3] | pest or weed control at 200 ppm (Phakopsora Pachyrhizi)

CN(C)C(=O)N(Cc1ccc(-c2noc(C(F)(F)F)n2)cc1)CC(F)(F)F [Compound 3.26, 1,1-dimethyl-3-(2,2,2-trifluoroethyl)-3-[[4-[5-(trifluoromethyl)-1,2,4-oxadiazol-3-yl]phenyl]methyl]urea]
≥ 80%: inhibition of growth at 20 ppm [1] | pest or weed control at 200 ppm [2] | pest or weed control at 200 ppm [3] | pest or weed control at 200 ppm (Phakopsora Pachyrhizi)

CCCN(Cc1ccc(-c2noc(C(F)(F)F)n2)cc1)C(=O)C1CC1(F)F (centres unmarked) [Compound 1.652, 2,2-difluoro-N-propyl-N-[[4-[5-(trifluoromethyl)-1,2,4-oxadiazol-3-yl]phenyl]methyl]-cyclopropane-carboxamide]
≥ 80%: inhibition of growth at 20 ppm [1] | pest or weed control at 200 ppm [2] | pest or weed control at 200 ppm [3] | pest or weed control at 200 ppm (Phakopsora Pachyrhizi)

CCCN(Cc1ccc(-c2noc(C(F)(F)F)n2)cc1)C(=O)C1(C)CC1 [Compound 1.658, 1-methyl-N-propyl-N-[[4-[5-(trifluoromethyl)-1,2,4-oxadiazol-3-yl]phenyl]methyl]-cyclopropane-carboxamide]
≥ 80%: inhibition of growth at 20 ppm [1] | pest or weed control at 200 ppm [2] | pest or weed control at 200 ppm [3] | pest or weed control at 200 ppm (Phakopsora Pachyrhizi)

CON(Cc1ccc(-c2noc(C(F)(F)F)n2)cn1)C(=O)C1CC1 [Compound 1.570, N-methoxy-N-[[5-[5-(trifluoromethyl)-1,2,4-oxadiazol-3-yl]-2-pyridyl]methyl]cyclopropanecarboxamide]
≥ 80%: inhibition of growth at 20 ppm [1] | pest or weed control at 200 ppm [2] | pest or weed control at 200 ppm [3] | pest or weed control at 200 ppm (Phakopsora Pachyrhizi)

CCCN(Cc1ccc(-c2noc(C(F)(F)F)n2)cc1)C(=O)CC [Compound 1.573, N-propyl-N-[[4-[5-(trifluoromethyl)-1,2,4-oxadiazol-3-yl]phenyl]methyl]-propanamide]
≥ 80%: inhibition of growth at 20 ppm [1] | pest or weed control at 200 ppm [2] | pest or weed control at 200 ppm [3] | pest or weed control at 200 ppm (Phakopsora Pachyrhizi)

CC(C)C(=O)N(Cc1ccc(-c2noc(C(F)(F)F)n2)cc1)C(C)C [Compound 1.670, N-isopropyl-2-methyl-N-[[4-[5-(trifluoromethyl)-1,2,4-oxadiazol-3-yl]phenyl]methyl]-propanamide]
≥ 80%: inhibition of growth at 20 ppm [1] | pest or weed control at 200 ppm [2] | pest or weed control at 200 ppm [3] | pest or weed control at 200 ppm (Phakopsora Pachyrhizi)
